Some test systems named below: 786-0; A549; COLO 205; HT-29; IGROV-1; M14; NCI-H226; OVCAR-4; RXF 393; SNB-19; TK-10; UACC-257; UACC-62; XF498; A498; BT-549; MDA-MB-231; MDA-MB-435; MDA-N; NCI/ADR-RES.
Common to all, as to assay: NCI-60 cell line screen, 48 h

Molecules are shown by their SMILES.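 These data come from cells grown in 96-well plates and exposed to compound for 48 hours at five concentrations. Here, GI50 denotes the concentration required for 50% inhibition of growth.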 Calls of active or inactive are those of the source. No stated cut-off is given here; in the data, active = GI50 up to about 1.1 µM and inactive = higher. Where only a bound is given, the exact number is not on record here.

On to `CN(NC1OC(CO)C(O)C(O)C1O)c1ccccc1` (centres undefined), for which the GI50 with 786-0, in the test with A549, with COLO 205, with HT-29, in the test on IGROV-1 and in the test with M14 was > 100 µM (inactive) in each case. The GI50 in the test on NCI-H226, in the test on OVCAR-4, with RXF 393, with SNB-19, in the test with TK-10 and in the test on UACC-257 was > 100 µM (inactive) throughout. Also, the GI50 was > 100 µM (inactive) in the test on UACC-62 and 16.4 µM (inactive) in the test with XF498.
For the molecule `Cc1occc1/C(S)=N\c1ccc(Cl)c(COC(C)(C)C)c1`, the GI50 is 16.3 µM (inactive) in the test on 786-0; 17.8 µM (inactive) with A498; 19.3 µM (inactive) with A549; 17.6 µM (inactive) with BT-549; 15.7 µM (inactive) in the test on COLO 205; 15.7 µM (inactive) in the test with HT-29. For the same molecule, the GI50 with IGROV-1 was 15 µM (inactive); with M14, 19.1 µM (inactive); in the test on MDA-MB-231 it was 17.1 µM (inactive); with MDA-MB-435, 16.7 µM (inactive); with MDA-N it was 16.1 µM (inactive); with NCI-H226, 18.1 µM (inactive). For the same molecule, the GI50 with NCI/ADR-RES is 16.1 µM (inactive); in the test with OVCAR-4, 15.3 µM (inactive); in the test with RXF 393, 14.9 µM (inactive); in the test on SNB-19, 20.9 µM (inactive); with TK-10, 19.4 µM (inactive); with UACC-257, 15.7 µM (inactive). Moreover, in the test on UACC-62, the GI50 was 14.6 µM (inactive).
Consider `COC(=O)CCc1cc(OC)c(O)c(C(Cc2ccc(OC)c(OC)c2)C(=O)OC)c1` (centres undefined), for which the GI50 in the test on 786-0, in the test on A498, in the test on A549, in the test with BT-549, in the test on COLO 205 and in the test on HT-29 was > 100 µM (inactive) throughout. For the same molecule, the GI50 in the test with IGROV-1, in the test on M14, with MDA-MB-231, in the test with MDA-MB-435, in the test with MDA-N and in the test with NCI-H226 was > 100 µM (inactive) in each case. For the same molecule, the GI50 in the test on NCI/ADR-RES, in the test with OVCAR-4, with RXF 393, in the test on SNB-19, with TK-10 and in the test on UACC-257 was > 100 µM (inactive) each time. In addition, in the test on UACC-62, the GI50 is > 100 µM (inactive).
As for `CN(Cc1cnc2nc(N)nc(N)c2n1)c1ccc(C(=O)NC(CCC(=O)NCCC(P(=O)(O)O)P(=O)(O)O)C(=O)O)cc1` (centres undefined), the GI50 in the test with 786-0 is 6.11 µM (inactive); with A498, 78 µM (inactive); in the test on A549 it was 11.6 µM (inactive); in the test on BT-549, > 100 µM (inactive); with COLO 205 it was > 82.6 µM (inactive); in the test with HT-29 it was 6 µM (inactive). Moreover, the GI50 with IGROV-1 was 35.2 µM (inactive); in the test with M14, 4.85 µM (inactive); in the test on MDA-MB-231, > 100 µM (inactive); with MDA-MB-435 it was 6.03 µM (inactive); in the test on MDA-N it was 8.55 µM (inactive); with NCI-H226, > 89.7 µM (inactive). For the same molecule, the GI50 with NCI/ADR-RES is 21.5 µM (inactive); in the test on OVCAR-4, > 100 µM (inactive); in the test with RXF 393, > 100 µM (inactive); with SNB-19 it was > 87.7 µM (inactive); in the test on TK-10, > 100 µM (inactive); in the test with UACC-257, > 100 µM (inactive). In addition, in the test with UACC-62, the GI50 is 28.4 µM (inactive).
Consider `CN(CCCNC(=O)c1nn(-c2ccccc2)c2c1ccc1ccccc12)CCCNC(=O)c1nn(-c2ccccc2)c2c1ccc1ccccc12`, for which the GI50 with 786-0 is 2.01 µM (inactive); with A498, 1.65 µM (inactive); in the test on A549 it was 1.84 µM (inactive); in the test on BT-549, 1.68 µM (inactive); in the test on COLO 205, 1.65 µM (inactive); with HT-29 it was 1.84 µM (inactive). The GI50 with IGROV-1 is 1.65 µM (inactive); in the test with M14 it was 1.85 µM (inactive); in the test on MDA-MB-231, 2.12 µM (inactive); in the test with MDA-MB-435 it was 1.75 µM (inactive); in the test on MDA-N, 1.68 µM (inactive); in the test on NCI-H226, 2.08 µM (inactive). For the same molecule, the GI50 in the test on NCI/ADR-RES was 1.8 µM (inactive); in the test with OVCAR-4, 1.82 µM (inactive); in the test on RXF 393, 1.76 µM (inactive); in the test with SNB-19, 1.79 µM (inactive); in the test on TK-10 it was 1.78 µM (inactive); in the test with UACC-257, 1.98 µM (inactive). Moreover, the GI50 in the test with UACC-62 is 1.6 µM (inactive).
For the molecule `CO/C=C(/C(=O)OC)c1ccccc1[C@H]1C[C@@H]1c1ccc(OC)cc1`, the GI50 is 34 µM (inactive) with 786-0; 28.1 µM (inactive) in the test on A498; 20.8 µM (inactive) in the test on A549; 17.7 µM (inactive) with BT-549; 13.1 µM (inactive) in the test on COLO 205; 14.9 µM (inactive) in the test with HT-29. Moreover, the GI50 is 14.3 µM (inactive) in the test with IGROV-1; 18.3 µM (inactive) in the test with M14; 25.5 µM (inactive) in the test on MDA-MB-231; 7.76 µM (inactive) in the test on MDA-MB-435; 12.9 µM (inactive) in the test on MDA-N; 30.2 µM (inactive) with NCI-H226. Further, the GI50 was 20.2 µM (inactive) in the test with NCI/ADR-RES; 8.05 µM (inactive) with OVCAR-4; 49.9 µM (inactive) in the test on RXF 393; 53.7 µM (inactive) in the test on SNB-19; 37.5 µM (inactive) with TK-10; 25.8 µM (inactive) in the test with UACC-257. Besides, in the test on UACC-62, the GI50 is 23.1 µM (inactive).
Regarding `c1ccc(N2N=C(c3ccco3)CC2c2ccco2)cc1` (centres undefined), the GI50 in the test with 786-0 is > 100 µM (inactive); with A549, > 100 µM (inactive); in the test on COLO 205, > 100 µM (inactive); in the test on HT-29, 75.9 µM (inactive); in the test with IGROV-1, > 100 µM (inactive); in the test with M14, > 100 µM (inactive). Moreover, the GI50 in the test on NCI-H226 is 66.8 µM (inactive); in the test with OVCAR-4 it was > 100 µM (inactive); with RXF 393 it was 52.4 µM (inactive); in the test with SNB-19 it was > 100 µM (inactive); in the test with TK-10, > 100 µM (inactive); in the test on UACC-62, 91.6 µM (inactive). Further, the GI50 with XF498 was > 100 µM (inactive).
Turning to `O=C(c1ccccc1)c1c(CC(O)c2cccnc2)n(C(=O)c2ccccc2)c2ccccc12` (centres undefined), the GI50 is 33.2 µM (inactive) with 786-0; 29.4 µM (inactive) in the test on A549; 22.3 µM (inactive) in the test on COLO 205; 18.8 µM (inactive) with HT-29; 19.1 µM (inactive) in the test with IGROV-1; 19.1 µM (inactive) in the test with M14. The GI50 was 11.7 µM (inactive) in the test on NCI-H226; 15.2 µM (inactive) in the test on OVCAR-4; 18.9 µM (inactive) with SNB-19; 26.9 µM (inactive) in the test on TK-10; 22.4 µM (inactive) in the test on UACC-257; 16.5 µM (inactive) in the test with UACC-62. For the same molecule, in the test with XF498, the GI50 was 13.6 µM (inactive).
For the molecule `COc1ccccc1N1CCN(CCCN2C(C(=O)c3ccccc3)=C(O)c3c(C)cc(C)nc3S2(=O)=O)CC1`, the GI50 with 786-0 is 39.5 µM (inactive); in the test with A498, > 100 µM (inactive); in the test on A549, 47.2 µM (inactive); in the test with BT-549, > 100 µM (inactive); in the test on COLO 205, 64 µM (inactive); in the test with HT-29 it was 34.8 µM (inactive). In addition, the GI50 with IGROV-1 is 72.1 µM (inactive); in the test with M14 it was 90.4 µM (inactive); in the test with MDA-MB-231, > 100 µM (inactive); in the test on MDA-MB-435 it was > 100 µM (inactive); in the test with MDA-N, > 100 µM (inactive); with NCI-H226 it was 0.867 µM (active). Besides, the GI50 with NCI/ADR-RES was 50.4 µM (inactive); in the test on OVCAR-4 it was 73.3 µM (inactive); in the test with RXF 393, 5.28 µM (inactive); in the test with SNB-19, 48.8 µM (inactive); with TK-10, > 100 µM (inactive); in the test on UACC-257, 74.1 µM (inactive). Moreover, the GI50 in the test on UACC-62 is > 100 µM (inactive).
For `Clc1ccc(C2ON=C(c3ccccc3)N2C23CC4CC(CC(C4)C2)C3)cc1` (centres undefined), the GI50 in the test on 786-0, in the test with A498, in the test with A549, in the test with BT-549, in the test on COLO 205 and with HT-29 was > 10 µM (inactive) throughout. Moreover, the GI50 in the test with IGROV-1, in the test on M14, with MDA-MB-231, in the test with MDA-MB-435, in the test on MDA-N and in the test with NCI-H226 was > 10 µM (inactive) in each case. For the same molecule, the GI50 in the test on NCI/ADR-RES, in the test on OVCAR-4, with RXF 393, in the test on SNB-19, in the test on TK-10 and with UACC-257 was > 10 µM (inactive) in each case. Moreover, in the test on UACC-62, the GI50 is > 10 µM (inactive).
As to `CC(=O)NNc1nc(C)c(C(=O)NNC(=O)C(=O)Nc2ccc(Cl)cc2)s1`, the GI50 in the test on 786-0, in the test on A549, with COLO 205, in the test on HT-29, with IGROV-1 and in the test with M14 was > 100 µM (inactive) each time. Also, the GI50 in the test on NCI-H226 was > 100 µM (inactive); in the test with OVCAR-4, 47 µM (inactive); with SNB-19, > 100 µM (inactive); in the test on TK-10 it was > 100 µM (inactive); in the test on UACC-257 it was > 100 µM (inactive); in the test on UACC-62 it was > 100 µM (inactive). Further, in the test on XF498, the GI50 was > 100 µM (inactive).
Turning to `C1=CC(=NN=P(c2ccccc2)(c2ccccc2)c2ccccc2)C=C1`, the GI50 in the test on 786-0, with A549, in the test with COLO 205, in the test with HT-29, in the test with IGROV-1 and in the test with M14 was > 100 µM (inactive) throughout. Moreover, the GI50 in the test on OVCAR-4, in the test on RXF 393, in the test on SNB-19, with TK-10, with UACC-257 and in the test on UACC-62 was > 100 µM (inactive) in each case. Besides, the GI50 in the test on XF498 was > 100 µM (inactive).

The record behind these values is ChEMBL document CHEMBL1201862, “PubChem BioAssay data set” (2004).
